In the NIST ThermoML archive (doi:10.1016/j.jct.2015.06.023):
Numbers after ± are expanded uncertainties.

What was measured:
[1] = activity coefficient (dimensionless); of the first substance listed, at infinite dilution; xn = mol fraction of the nth substance listed; conditions: 100 kPa, Liquid, Chromatography, x1 = 0
[2] = Liquid; for mass density: 101.33 kPa, Vibrating tube method; for vapor or sublimation pressure: 363.2 K, Closed cell (Static) method
[3] = excess molar enthalpy (molar enthalpy of mixing); xn = mol fraction of the nth substance listed; conditions: 363.2 K, 100 kPa, Liquid, Flow calorimetry

**Q.** With `CCCO` [propan-1-ol] + CCCCCC[n+]1ccccc1.O=S(=O)([N-]S(=O)(=O)C(F)(F)F)C(F)(F)F as the compound, how does the activity coefficient ([1]; 303.2 K) read?
**A.** 1.98 ± 0.12

**Q.** What about the activity coefficient ([1]; 313.2 K) of the same compound?
**A.** 1.49 ± 0.085

**Q.** And the activity coefficient ([1]; 323.2 K)?
**A.** 1.47 ± 0.084

**Q.** What about the activity coefficient ([1]; 333.2 K) of the same compound?
**A.** 1.26 ± 0.07

**Q.** And the activity coefficient ([1]; 343.2 K)?
**A.** 1.15 ± 0.063

**Q.** Which results are given for `Cc1ccccc1` [toluene] + CCCCCC[n+]1ccccc1.O=S(=O)([N-]S(=O)(=O)C(F)(F)F)C(F)(F)F?
**A.** activity coefficient ([1]; 303.2 K): 0.828 ± 0.046; activity coefficient ([1]; 313.2 K): 0.868 ± 0.047; activity coefficient ([1]; 323.2 K): 0.82 ± 0.045; activity coefficient ([1]; 333.2 K): 0.847 ± 0.047; activity coefficient ([1]; 343.2 K): 0.882 ± 0.048

**Q.** Which activity coefficient ([1]; 303.2 K) does the source give for `c1ccccc1` [benzene] + CCCCCC[n+]1ccccc1.O=S(=O)([N-]S(=O)(=O)C(F)(F)F)C(F)(F)F here?
**A.** 0.639 ± 0.039

**Q.** What about the activity coefficient ([1]; 313.2 K) of the same compound?
**A.** 0.655 ± 0.039

**Q.** What about the activity coefficient ([1]; 323.2 K) of the same compound?
**A.** 0.627 ± 0.038

**Q.** What about the activity coefficient ([1]; 333.2 K) of the same compound?
**A.** 0.657 ± 0.039

**Q.** And the activity coefficient ([1]; 343.2 K)?
**A.** 0.605 ± 0.037

**Q.** For `CCO` [ethanol] + CCCCCC[n+]1ccccc1.O=S(=O)([N-]S(=O)(=O)C(F)(F)F)C(F)(F)F, which activity coefficient ([1]; 303.2 K) is on record?
**A.** 1.64 ± 0.094

**Q.** What about the activity coefficient ([1]; 313.2 K) of the same compound?
**A.** 1.35 ± 0.075

**Q.** What about the activity coefficient ([1]; 323.2 K) of the same compound?
**A.** 1.28 ± 0.071

**Q.** And the activity coefficient ([1]; 333.2 K)?
**A.** 1.13 ± 0.061

**Q.** What about the activity coefficient ([1]; 343.2 K) of the same compound?
**A.** 0.996 ± 0.053

**Q.** With `CCCCCC[n+]1ccccc1.O=S(=O)([N-]S(=O)(=O)C(F)(F)F)C(F)(F)F` [1-hexylpyridinium bis(trifluromethylsulfonyl)imide] as the compound, how does the mass density ([2]; 293.15 K) read?
**A.** 1389.16 ± 1.1 kg/m3

**Q.** What about the mass density ([2]; 298.15 K) of the same compound?
**A.** 1384.56 ± 1.1 kg/m3

**Q.** What about the mass density ([2]; 299.15 K) of the same compound?
**A.** 1383.67 ± 1.1 kg/m3

**Q.** And the mass density ([2]; 303.15 K)?
**A.** 1380.22 ± 1.1 kg/m3

**Q.** What about the mass density ([2]; 313.15 K) of the same compound?
**A.** 1371.26 ± 1.1 kg/m3

**Q.** What about the mass density ([2]; 323.15 K) of the same compound?
**A.** 1362.38 ± 1.1 kg/m3

**Q.** And the mass density ([2]; 333.15 K)?
**A.** 1353.54 ± 1.1 kg/m3

**Q.** What about the mass density ([2]; 343.15 K) of the same compound?
**A.** 1344.76 ± 1.1 kg/m3

**Q.** And the mass density ([2]; 353.15 K)?
**A.** 1336.02 ± 1.1 kg/m3

**Q.** Which excess molar enthalpy ([3]; x2 = 0.052) does the source give for `CCCCCC[n+]1ccccc1.O=S(=O)([N-]S(=O)(=O)C(F)(F)F)C(F)(F)F` [1-hexylpyridinium bis(trifluromethylsulfonyl)imide] + CCCO here?
**A.** 0.0851 ± 0.0055 kcal/mol

**Q.** What about the excess molar enthalpy ([3]; x2 = 0.1) of the same compound?
**A.** 0.165 ± 0.00884 kcal/mol

**Q.** And the excess molar enthalpy ([3]; x2 = 0.185)?
**A.** 0.299 ± 0.0155 kcal/mol

**Q.** What about the excess molar enthalpy ([3]; x2 = 0.259) of the same compound?
**A.** 0.402 ± 0.0206 kcal/mol

**Q.** What about the excess molar enthalpy ([3]; x2 = 0.324) of the same compound?
**A.** 0.483 ± 0.0239 kcal/mol

**Q.** And the excess molar enthalpy ([3]; x2 = 0.432)?
**A.** 0.589 ± 0.0287 kcal/mol

**Q.** And the excess molar enthalpy ([3]; x2 = 0.519)?
**A.** 0.643 ± 0.0335 kcal/mol

**Q.** And the excess molar enthalpy ([3]; x2 = 0.621)?
**A.** 0.661 ± 0.0335 kcal/mol

**Q.** And the excess molar enthalpy ([3]; x2 = 0.699)?
**A.** 0.633 ± 0.0311 kcal/mol

**Q.** What about the excess molar enthalpy ([3]; x2 = 0.779) of the same compound?
**A.** 0.56 ± 0.0287 kcal/mol

**Q.** What about the excess molar enthalpy ([3]; x2 = 0.841) of the same compound?
**A.** 0.462 ± 0.0237 kcal/mol

**Q.** What about the excess molar enthalpy ([3]; x2 = 0.889) of the same compound?
**A.** 0.358 ± 0.0186 kcal/mol

**Q.** And the excess molar enthalpy ([3]; x2 = 0.928)?
**A.** 0.251 ± 0.0141 kcal/mol

**Q.** And the excess molar enthalpy ([3]; x2 = 0.961)?
**A.** 0.146 ± 0.01 kcal/mol

**Q.** What about the excess molar enthalpy ([3]; x2 = 0.988) of the same compound?
**A.** 0.0477 ± 0.00765 kcal/mol

**Q.** What does the source list for `C1CCCCC1` [cyclohexane] + CCCCCC[n+]1ccccc1.O=S(=O)([N-]S(=O)(=O)C(F)(F)F)C(F)(F)F?
**A.** activity coefficient ([1]; 303.2 K): 5.19 ± 0.31; activity coefficient ([1]; 313.2 K): 4.86 ± 0.29; activity coefficient ([1]; 323.2 K): 4.68 ± 0.28; activity coefficient ([1]; 333.2 K): 4.41 ± 0.26; activity coefficient ([1]; 343.2 K): 4.3 ± 0.26

**Q.** For `CCCCO` [butan-1-ol], which “vapor or sublimation pressure” value [2] is on record?
**A.** 34.47 ± 0.54 kPa

**Q.** Which “vapor or sublimation pressure” value [2] does the source give for `CCCO` [propan-1-ol] here?
**A.** 76.56 ± 0.69 kPa

**Q.** With `CCCCCC[n+]1ccccc1.O=S(=O)([N-]S(=O)(=O)C(F)(F)F)C(F)(F)F` [1-hexylpyridinium bis(trifluromethylsulfonyl)imide] + CCCCO as the compound, how does the excess molar enthalpy ([3]; x2 = 0.043) read?
**A.** 0.0722 ± 0.00502 kcal/mol

**Q.** And the excess molar enthalpy ([3]; x2 = 0.083)?
**A.** 0.14 ± 0.00789 kcal/mol

**Q.** And the excess molar enthalpy ([3]; x2 = 0.157)?
**A.** 0.258 ± 0.0134 kcal/mol

**Q.** And the excess molar enthalpy ([3]; x2 = 0.222)?
**A.** 0.356 ± 0.0182 kcal/mol

**Q.** And the excess molar enthalpy ([3]; x2 = 0.282)?
**A.** 0.436 ± 0.0222 kcal/mol

**Q.** What about the excess molar enthalpy ([3]; x2 = 0.384) of the same compound?
**A.** 0.55 ± 0.0287 kcal/mol

**Q.** What about the excess molar enthalpy ([3]; x2 = 0.469) of the same compound?
**A.** 0.619 ± 0.0311 kcal/mol

**Q.** What about the excess molar enthalpy ([3]; x2 = 0.572) of the same compound?
**A.** 0.661 ± 0.0335 kcal/mol

**Q.** What about the excess molar enthalpy ([3]; x2 = 0.655) of the same compound?
**A.** 0.652 ± 0.0335 kcal/mol

**Q.** And the excess molar enthalpy ([3]; x2 = 0.743)?
**A.** 0.594 ± 0.0311 kcal/mol

**Q.** And the excess molar enthalpy ([3]; x2 = 0.812)?
**A.** 0.505 ± 0.0263 kcal/mol

**Q.** And the excess molar enthalpy ([3]; x2 = 0.868)?
**A.** 0.399 ± 0.0206 kcal/mol

**Q.** And the excess molar enthalpy ([3]; x2 = 0.914)?
**A.** 0.284 ± 0.0153 kcal/mol

**Q.** What about the excess molar enthalpy ([3]; x2 = 0.952) of the same compound?
**A.** 0.168 ± 0.0108 kcal/mol

**Q.** What about the excess molar enthalpy ([3]; x2 = 0.985) of the same compound?
**A.** 0.0549 ± 0.00741 kcal/mol

**Q.** Which activity coefficient ([1]; 303.2 K) does the source give for `CCCCO` [butan-1-ol] + CCCCCC[n+]1ccccc1.O=S(=O)([N-]S(=O)(=O)C(F)(F)F)C(F)(F)F here?
**A.** 2.74 ± 0.16

**Q.** And the activity coefficient ([1]; 313.2 K)?
**A.** 1.72 ± 0.1

**Q.** And the activity coefficient ([1]; 323.2 K)?
**A.** 1.59 ± 0.091

**Q.** And the activity coefficient ([1]; 333.2 K)?
**A.** 1.42 ± 0.08

**Q.** What about the activity coefficient ([1]; 343.2 K) of the same compound?
**A.** 1.25 ± 0.069
